Test system: P. aeruginosa PAO1 biofilms
Assay: In vitro biofilm staining under flow conditions, compound supplementation to the medium
Format: cell-based, Pseudomonas aeruginosa
Conditions: 3 mL/h
Description: P. aeruginosa biofilms were grown under flow conditions and observed by fluorescence microscopy in analogy to Ghanbari et al.[66] To this end, P. aeruginosa PAO1 expressing the red fluorescent protein mCherry[56] was diluted to an OD600 nm of 0.1 and injected into the microfluidics device. After a 30-min settling period, biofilms were grown under a constant laminar flow rate of 3 mL/h per channel. Following 48 h of incubation at 30 °C, dense and mature P. aeruginosa PAO1 biofilms were observed, which were then further used for analysis of the imaging probes.
To circumvent these technical drawbacks, the addition of compounds to the medium reservoir and retention at the biofilm was pursued. Imaging compounds were added to the medium reservoirs at a concentration of 500 nM, which were continuously pumped (3 mL/h) through the flow cell for 4 h. Compound accumulation at mature P. aeruginosa biofilms was immediately analyzed using fluorescence microscopy. Afterwards, the medium was exchanged, and the biofilms were washed for 30 min (3 mL/h, no compound) to monitor the retention (Figure 5). Furthermore, an analysis using CLSM was also performed after 4 h of accumulation without washing (Figures 5 and S22).
Figure 5 Staining of P. aeruginosa PAO1 biofilms grown under flow conditions with compound supplementation to the medium. Biofilm staining with (A) fluorescein divalent probe 17, (B) fluorescein control 24, (C) BODIPY divalent probe 19, and (D) BDP FL azide control 18 was monitored after 4 h of accumulation under constant flow (3 mL/h) of LB media containing 500 nM of respective compound. Retention of imaging compounds is shown after a subsequent wash period for 30 min with medium (3 mL/h, no compound). Images were recorded by using a fluorescence microscope. CLSM was performed for (E) BODIPY divalent probe 19 and the control (F) BDP FL azide 18 after 4 h of accumulation. Green signal originates from fluorescently labeled probes 17 and 19 and controls 24 and 18. P. aeruginosa constitutively expressing mCherry from pMP7605^56 is shown in red. Z-Stack size, 2 μm. Scale bar = 50 μm.
In vitro biofilm staining under flow conditions
The flow cell experiment was set up in analogy to Ghanbari et al. and in this study, optimized and established for biofilm staining.25 In principle, the experiment is based on an inlet connected to a medium source, a peristaltic pump providing constant medium flow, a flow chamber enabling analysis of bacterial growth and an outlet (waste container/bottle).
The medium used in the flow system was LB diluted by factor 5 containing 60 µg/mL
Gm. Silicone tubings 1.6 mm (ibidi, Germany) were used transporting medium from inlet to the peristaltic pump (Watson-Marlow Fluid Technology Solutions). Stopper hoses (CarlRoth) placed in peristaltic pump were coupled to silicone tubes via connectors (ibidi, Germany).
Stopper hoses are connected to bubble traps (obtained by Claus Sternberg, DTU Copenhagen) via 0.8 mm silicone tubing (ibidi, Germany). Bubble traps were used to remove air from the medium flow and to avoid biofilm disruption. Downstream from the bubble traps, the flow cell (μ-Slide VI 0.4 ibiTreat, ibidi, Germany) was placed into the system and connected to 1.6 mm silicone tubes (ibidi, Germany). The outlet is leading the medium from flow chamber to a waste […]
In order to inoculate the flow cell with P. aeruginosa PAO1 mCherry (pMP7605)23 the silicone tubes upstream and downstream of the flow chamber were pinched off by using commercial plastic clamps. The medium flow was stopped and the flow cell was inoculated by injecting 300 µL of the bacterial suspension (OD600nm of 0.1) into the silicone tubing upstream of the flow chamber. For this, a cannula (0.30 x 12 mm, Sterican) was used. The injection point was sealed with silicone glue. After bacterial settling time of 30 min, the flow was started again and clamps were removed. Growth temperature was regulated by using a heat system (ibidi, […]
Germany). […]

## O=C(CCc1ccc(O[C@@H]2O[C@H](CO)[C@H](O)[C@H](O)[C@H]2O)cc1)Nc1ccc(CN(CCc2cn(CCOCCOCCOCCNC(=S)Nc3ccc4c(c3)C(=O)OC43c4ccc(O)cc4Oc4cc(O)ccc43)nn2)Cc2ccc(NC(=O)CCc3ccc(O[C@@H]4O[C@H](CO)[C@H](O)[C@H](O)[C@H]4O)cc3)cc2)cc1 [compound 17]
500 nM in medium, 4 h, fluorescence microscope
  Biofilm staining after accumulation: successfully stained PAO1 biofilms
After 4 h accumulation at 500 nM, 30 min wash, no compound
  Retention at biofilm after wash: still visible at a lower intensity

Source: article PMC11672137, “High-Affinity Lectin Ligands Enable the Detection of Pathogenic Pseudomonas aeruginosa Biofilms: Implications for Diagnostics and Therapy” (JACS Au, 2024)
